# Assay results taken from patent US20250353825A1, “CANNABICYCLOL DERIVATIVES AND PREPARATION METHODS THEREOF” (priority 2023, published 2025).
# Key:
# A549 = test: MTS cell viability assay, A549; type: cell-based; settings: Homo sapiens, Table 7, 72 hours, read-out: IC50 against A549
# Method: (§1) Primary viability screening: (1) the synthesized compounds 3a to 13d were respectively dissolved in DMSO to prepare a 40 μg/mL cannabicyclol and cannabicyclol derivative solutions.
# (§2) (2) A control group: a 200 μL DMSO solvent.
# (§3) (3) The solutions of compounds 3a to 13d were diluted in a twofold gradient to obtain cannabicyclol and cannabicyclol derivative solutions at concentrations of 40 μg/mL, 20 μg/mL, 10 μg/mL, 5 μg/mL, 2.5 μg/mL, 1.25 μg/mL, and 0.625 μg/mL, and 0.3125 μg/mL, respectively.
# (§4) (4) Three glioblastoma stem cells (GSC-3, GSC-12, and GSC-18), three pancreatic cancer cell-derived stem cells (PANC-1-CSC, BXPC-3-CSC, and ASPC1-CSC), three liver cancer cell-derived stem cells (HepG2-CSC, MHCC97H-CSC, and SMMC7721-CSC), HEK-293T cells, 16 tumor cells (U251, U87, T98G, PANC1, BXPC3, ASPC1, HepG2, MHCC97H, SMMC7721, PC3, SKOV3, MDA-MB231, A549, HCT116, HEC-1B, MKN28), and differentiated glioblastoma stem cells (GSC-3diff and GSC-12diff) derived from GSC-3 and GSC-12 (all of the cells were provided by the Laboratory of Tumor Animal Model Preparation and Application Research, West China Hospital, Sichuan University) were inoculated into a 96-well plate at a concentration of 2×10^4 cells/well, and 100 μL of culture medium was then added to each well; […]
# (§5) (10) The absorbance value at 490 nm was measured on an enzyme labeling apparatus, and the IC50 value was calculated.
# HepG2-CSC = test: Soft agar colony (clone) formation, HepG2-CSC; type: cell-based; settings: crystal violet, FIG. 4, compound 3a 0, 5 and 5 [sic] μg/mL
# Method: (§6) […] of low-melting-point agarose was dissolved in 12.5 mL of ddH2O to prepare a 3.2% low-melting-point agarose gel. The low-melting-point agarose gel was sterilized by autoclaving at 121° C. and 0.12 MPa for 20 minutes. After sterilization, the low-melting-point agarose gel was maintained at 60° C. in a drying oven for further use.
# (§7) 1.75 mL of 3.2% sterile low-melting-point agarose gel was taken, 5.25 mL of the corresponding complete medium was added, and the two were mixed thoroughly using a pipette to prepare a base gel at a concentration of 0.8%.
# (§8) 1 mL of the base gel was added to each well of a 6-well plate, ensuring that the base gel evenly covered the bottom of each well. The plate was placed at 4° C. for 5 minutes to allow the gel to solidify. After the gel had fully solidified, the plate was warmed at 37° C. for 5 minutes.
# (§9) 6 cells/cell lines (U251, SMMC7721, GSC-3, GSC-12, SMMC7721-CSC, and HepG2-CSC) were individually digested with 1× trypsin for 3 minutes. The corresponding complete culture medium (same as in the application example 1) was added to terminate the digestion. Cells were centrifuged at 1000 rpm for 3 minutes, and the cells were collected and counted. A total of 5×10^3 cells were added to each well, each group was set up with three replicates. […]
# SMMC7721 liver cancer = test: Mouse liver cancer model (subcutaneous SMMC7721); type: in vivo, mice; settings: for tumor volume compared with the control group: 23 days, FIG. 5; for tumor weight compared with the control group: day 23, FIG. 7
# Method: Establishment of a mouse liver cancer model: 2×10^6 SMMC7721 (containing 30% Matrigel) was subcutaneously injected into the right inguinal region of the mice (NOD/ShiLtJGpt-Prkdc^em26cd52 Il2rg^em26cd22/Gpt(NCG)mic). The model was established when the tumor volume reached 50 mm^3.
# According to the weight of mice: in treatment group 1, each mouse was intraperitoneally injected with a CBL solution at 50 mg/kg, and in treatment group 2, each mouse was intraperitoneally injected with a CBL solution at 100 mg/kg. The mice in a control group were injected with an equal volume of a DMSO solvent. The drug was administered once every 2 days, continuing for 23 days. Tumor volume was measured on days 3, 7, 10, 14, 17, 20, and 23. On day 23, the tumor tissue was collected and weighed. The tumor volume changes at different time points are shown in FIG. 5, the tumor tissue collected on day 23 is shown in FIG. 6, and the average tumor weight of different treatment groups is shown in FIG. 7.
# PANC1 = test: MTS cell viability assay, PANC1; type: cell-based; settings: Homo sapiens, PANC-1; Table 7, 72 hours; read-out: IC50 against PANC1
# Method: as §1, §2, §3, §4, §5
# [1] = system: glioblastoma cell line U251; test: Soft agar colony (clone) formation, U251; type: cell-based; settings: crystal violet, FIG. 4, compound 3a 0, 5 and 5 [sic] μg/mL
# Method: as §6, §7, §8, §9
# [2] = treatment group 1, 50 mg/kg intraperitoneally once every 2 days
# [3] = treatment group 2, 100 mg/kg intraperitoneally once every 2 days
smiles,measurement,setting,value
"CCCCCc1cc(O)c2c(c1)OC1(C)CCC3C1C2C3(C)C (stereo not drawn) [Compound 3a, cannabicyclol]",IC50,A549,> 40 mg/L
same,colony formation of HepG2-CSC,HepG2-CSC,significantly inhibited
same,"inhibitory effect on liver cancer, 100 mg/kg compared to 50 mg/kg","SMMC7721 liver cancer; 100 mg/kg versus 50 mg/kg dosage, intraperitoneal",better inhibitory effect
same,tumor volume compared with the control group,SMMC7721 liver cancer; [2],significantly inhibited
same,tumor weight compared with the control group,SMMC7721 liver cancer; [2],significantly inhibited
same,tumor volume compared with the control group,SMMC7721 liver cancer; [3],significantly inhibited
same,tumor weight compared with the control group,SMMC7721 liver cancer; [3],significantly inhibited
same,IC50,PANC1,> 40 mg/L
same,colony formation of U251,[1],significantly inhibited
